Source: the supplement of paper PMC10307832

Tests used:
Assay in all cases: relative viability (nuclei count vs DMSO), 5 days (fraction); higher = more cells survive
[1] = compound: C1CSC2=C(C(=O)N1)SC3=C2C=C(C=C3)O [kb NB 142-70] + CC(C)C[C@H](NC(=O)[C@H](Cc1ccccc1)NC(=O)c1cnccn1)B(O)O [Bortezomib] (partner 0.002 µM)
Outline: (§1)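 Relative viability is defined as nuclei in treated wells over nuclei in vehicle wells. Duplicate plates were run and medians reported. Lung cancer cell lines in 1536-well plates were dosed by pin tool one day after seeding, with one drug or with a fixed anchor-drug dose plus five library-drug doses (not always all listed) in √10 steps, and nuclei were counted after 5 days.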

[2] = compound: NCC(=O)Nc1ccc(-n2nc(C(F)(F)F)cc2-c2ccc3c(ccc4ccccc43)c2)cc1 + Cc1nc(Nc2ncc(C(=O)Nc3c(C)cccc3Cl)s2)cc(N2CCN(CCO)CC2)n1 [Dasatinib] (partner 0.075 µM)
Outline: as §1

[3] = compound: C1CSC2=C(C(=O)N1)SC3=C2C=C(C=C3)O [kb NB 142-70] + COc1cccc2cc(-c3nc([C@H]4CC[C@H](C(=O)O)CC4)n4ncnc(N)c34)[nH]c12 [OSI-027] (partner 0.5 µM)
Outline: as §1

[4] = compound: C1CSC2=C(C(=O)N1)SC3=C2C=C(C=C3)O [kb NB 142-70] + CS(=O)(=O)N1CCN(Cc2cc3nc(-c4cccc5[nH]ncc45)nc(N4CCOCC4)c3s2)CC1 [Pictilisib] (partner 1 µM)
Outline: as §1

[5] = compound: C1CSC2=C(C(=O)N1)SC3=C2C=C(C=C3)O [kb NB 142-70] + O=C(c1cc(Cc2n[nH]c(=O)c3ccccc23)ccc1F)N1CCN(C(=O)C2CC2)CC1 [Olaparib] (partner 8 µM)
Outline: as §1

## NCI-H727
[1]; first compound 0.1 µM
  relative viability: 0.897
[1]; first compound 1 µM
  relative viability: 1.1
[1]; first compound 3.162 µM
  relative viability: 1.02
[2]; first compound 0.02 µM
  relative viability: 0.375
[2]; first compound 0.06325 µM
  relative viability: 0.365
[2]; first compound 0.2 µM
  relative viability: 0.347
[2]; first compound 0.6325 µM
  relative viability: 0.467
[2]; first compound 2 µM
  relative viability: 0.345
[3]; first compound 0.1 µM
  relative viability: 0.716
[3]; first compound 1 µM
  relative viability: 0.583
[3]; first compound 3.162 µM
  relative viability: 0.67
[4]; first compound 0.1 µM
  relative viability: 0.425
[4]; first compound 1 µM
  relative viability: 0.469
[4]; first compound 3.162 µM
  relative viability: 0.346
[5]; first compound 0.1 µM
  relative viability: 0.743
[5]; first compound 1 µM
  relative viability: 0.592
[5]; first compound 3.162 µM
  relative viability: 0.68

## NCI-H838
[1]; first compound 0.1 µM
  relative viability: 0.83
[1]; first compound 1 µM
  relative viability: 0.777
[1]; first compound 3.162 µM
  relative viability: 0.877
[2]; first compound 0.02 µM
  relative viability: 0.233
[2]; first compound 0.06325 µM
  relative viability: 0.305
[2]; first compound 0.2 µM
  relative viability: 0.273
[2]; first compound 0.6325 µM
  relative viability: 0.302
[2]; first compound 2 µM
  relative viability: 0.285
[3]; first compound 0.1 µM
  relative viability: 0.369
[3]; first compound 1 µM
  relative viability: 0.386
[3]; first compound 3.162 µM
  relative viability: 0.331
[4]; first compound 0.1 µM
  relative viability: 0.444
[4]; first compound 1 µM
  relative viability: 0.447
[4]; first compound 3.162 µM
  relative viability: 0.424
[5]; first compound 0.1 µM
  relative viability: 0.73
[5]; first compound 1 µM
  relative viability: 0.787
[5]; first compound 3.162 µM
  relative viability: 0.739

## NCI-H1355
[1]; first compound 0.1 µM
  relative viability: 1.24
[1]; first compound 1 µM
  relative viability: 1.16
[1]; first compound 3.162 µM
  relative viability: 1.22
[2]; first compound 0.02 µM
  relative viability: 0.664
[2]; first compound 0.06325 µM
  relative viability: 0.813
[2]; first compound 0.2 µM
  relative viability: 0.723
[2]; first compound 0.6325 µM
  relative viability: 0.754
[2]; first compound 2 µM
  relative viability: 0.756
[3]; first compound 0.1 µM
  relative viability: 0.44
[3]; first compound 1 µM
  relative viability: 0.38
[3]; first compound 3.162 µM
  relative viability: 0.378
[4]; first compound 0.1 µM
  relative viability: 0.491
[4]; first compound 1 µM
  relative viability: 0.428
[4]; first compound 3.162 µM
  relative viability: 0.425
[5]; first compound 0.1 µM
  relative viability: 0.818
[5]; first compound 1 µM
  relative viability: 0.744
[5]; first compound 3.162 µM
  relative viability: 0.775

## NCI-H1437
[1]; first compound 0.1 µM
  relative viability: 0.485
[1]; first compound 1 µM
  relative viability: 0.492
[1]; first compound 3.162 µM
  relative viability: 0.482
[2]; first compound 0.02 µM
  relative viability: 0.309
[2]; first compound 0.06325 µM
  relative viability: 0.359
[2]; first compound 0.2 µM
  relative viability: 0.265
[2]; first compound 0.6325 µM
  relative viability: 0.506
[2]; first compound 2 µM
  relative viability: 0.526
[3]; first compound 0.1 µM
  relative viability: 0.908
[3]; first compound 1 µM
  relative viability: 0.968
[3]; first compound 3.162 µM
  relative viability: 0.921
[4]; first compound 0.1 µM
  relative viability: 0.406
[4]; first compound 1 µM
  relative viability: 0.459
[4]; first compound 3.162 µM
  relative viability: 0.37
[5]; first compound 0.1 µM
  relative viability: 0.625
[5]; first compound 1 µM
  relative viability: 0.663
[5]; first compound 3.162 µM
  relative viability: 0.57

## NCI-H1650
[1]; first compound 0.1 µM
  relative viability: 0.179
[1]; first compound 1 µM
  relative viability: 0.206
[1]; first compound 3.162 µM
  relative viability: 0.203
[2]; first compound 0.02 µM
  relative viability: 0.349
[2]; first compound 0.06325 µM
  relative viability: 0.313
[2]; first compound 0.6325 µM
  relative viability: 0.364
[2]; first compound 2 µM
  relative viability: 0.396
[3]; first compound 0.1 µM
  relative viability: 0.612
[3]; first compound 1 µM
  relative viability: 0.755
[3]; first compound 3.162 µM
  relative viability: 0.483
[4]; first compound 0.1 µM
  relative viability: 0.577
[4]; first compound 1 µM
  relative viability: 0.539
[4]; first compound 3.162 µM
  relative viability: 0.613
[5]; first compound 0.1 µM
  relative viability: 0.9
[5]; first compound 1 µM
  relative viability: 0.881
[5]; first compound 3.162 µM
  relative viability: 0.854

## NCI-H1651
[1]; first compound 0.1 µM
  relative viability: 0.966
[1]; first compound 1 µM
  relative viability: 0.863
[1]; first compound 3.162 µM
  relative viability: 0.857
[2]; first compound 0.02 µM
  relative viability: 0.319
[2]; first compound 0.06325 µM
  relative viability: 0.447
[2]; first compound 0.2 µM
  relative viability: 0.346
[2]; first compound 0.6325 µM
  relative viability: 0.494
[2]; first compound 2 µM
  relative viability: 0.462
[3]; first compound 0.1 µM
  relative viability: 0.725
[3]; first compound 1 µM
  relative viability: 0.657
[3]; first compound 3.162 µM
  relative viability: 0.471
[4]; first compound 0.1 µM
  relative viability: 0.563
[4]; first compound 1 µM
  relative viability: 0.497
[4]; first compound 3.162 µM
  relative viability: 0.344
[5]; first compound 0.1 µM
  relative viability: 0.181
[5]; first compound 1 µM
  relative viability: 0.181
[5]; first compound 3.162 µM
  relative viability: 0.187

## NCI-H1666
[1]; first compound 0.1 µM
  relative viability: 0.903
[1]; first compound 1 µM
  relative viability: 0.713
[1]; first compound 3.162 µM
  relative viability: 0.36
[2]; first compound 0.02 µM
  relative viability: 0.814
[2]; first compound 0.06325 µM
  relative viability: 0.793
[2]; first compound 0.2 µM
  relative viability: 0.881
[2]; first compound 0.6325 µM
  relative viability: 0.814
[2]; first compound 2 µM
  relative viability: 0.744
[3]; first compound 0.1 µM
  relative viability: 0.786
[3]; first compound 1 µM
  relative viability: 0.875
[3]; first compound 3.162 µM
  relative viability: 0.875
[4]; first compound 0.1 µM
  relative viability: 0.405
[4]; first compound 1 µM
  relative viability: 0.346
[4]; first compound 3.162 µM
  relative viability: 0.204
[5]; first compound 0.1 µM
  relative viability: 0.73
[5]; first compound 1 µM
  relative viability: 0.78
[5]; first compound 3.162 µM
  relative viability: 0.823

## NCI-H1734
[1]; first compound 0.1 µM
  relative viability: 0.889
[1]; first compound 1 µM
  relative viability: 0.867
[1]; first compound 3.162 µM
  relative viability: 0.49
[2]; first compound 0.02 µM
  relative viability: 0.468
[2]; first compound 0.06325 µM
  relative viability: 0.472
[2]; first compound 0.2 µM
  relative viability: 0.513
[2]; first compound 0.6325 µM
  relative viability: 0.466
[2]; first compound 2 µM
  relative viability: 0.438
[3]; first compound 0.1 µM
  relative viability: 0.584
[3]; first compound 1 µM
  relative viability: 0.509
[3]; first compound 3.162 µM
  relative viability: 0.396
[4]; first compound 0.1 µM
  relative viability: 0.429
[4]; first compound 1 µM
  relative viability: 0.432
[4]; first compound 3.162 µM
  relative viability: 0.363
[5]; first compound 0.1 µM
  relative viability: 0.586
[5]; first compound 1 µM
  relative viability: 0.509
[5]; first compound 3.162 µM
  relative viability: 0.304

## NCI-H1755
[1]; first compound 0.1 µM
  relative viability: 1.02
[1]; first compound 1 µM
  relative viability: 0.98
[1]; first compound 3.162 µM
  relative viability: 1
[2]; first compound 0.02 µM
  relative viability: 0.435
[2]; first compound 0.06325 µM
  relative viability: 0.44
[2]; first compound 0.2 µM
  relative viability: 0.431
[2]; first compound 0.6325 µM
  relative viability: 0.45
[2]; first compound 2 µM
  relative viability: 0.414
[3]; first compound 0.1 µM
  relative viability: 0.741
[3]; first compound 1 µM
  relative viability: 0.722
[3]; first compound 3.162 µM
  relative viability: 0.737
[4]; first compound 0.1 µM
  relative viability: 0.462
[4]; first compound 1 µM
  relative viability: 0.504
[4]; first compound 3.162 µM
  relative viability: 0.431
[5]; first compound 0.1 µM
  relative viability: 0.934
[5]; first compound 1 µM
  relative viability: 0.809
[5]; first compound 3.162 µM
  relative viability: 0.883
